In ChEMBL document CHEMBL4673260, “Pyridine alkaloids with activity in the central nervous system” (Bioorg Med Chem, 2020):

Columns and labels:
[1] = Neuroprotective activity against glutamate-induced cell death in rat forebrain derived neurons assessed as neuron death at 100 nM incubated for 45 mins (reference value: 55%); format: functional; conditions: 0.75 h
[2] = Neuroprotective activity against Bay-K8644-induced calcium mobilization in rat forebrain derived neurons assessed as calcium elevation at 100 nM (reference value: 521 nM); format: functional, Neuron
[3] = Neuroprotective activity against glutamate-induced calcium mobilization in rat forebrain derived neurons assessed as calcium elevation at 100 nM (reference value: 811 nM); format: functional, Neuron
[4] = Neuroprotective activity against NMDA-induced cell death in rat neurons assessed as cell survival pretreated for 45 mins followed by NMDA stimulation and measured after 30 mins by MTT assay (reference value: […]%); format: functional, Neuron; conditions: time 75 min; 1.25 h
[5] = Toxicity in female rat; conditions: in vivo
[6] = Toxicity in male rat; conditions: in vivo
Mus musculus [7] = experiment: Anti-analeptic activity in mouse assessed as reduction in lethality at 125 to 150 mg/kg coadministered with camphor relative to control; format: functional; design: scale not given: the % may be the effect or the level left; conditions: dose 125-150 mg/kg
Mus musculus [8] = experiment: Anti-analeptic activity in mouse assessed as reduction in convulsion at 125 to 150 mg/kg coadministered with camphor relative to control; format: functional; design: scale not given: the % may be the effect or the level left; conditions: dose 125-150 mg/kg
Mus musculus [9] = experiment: Anti-analeptic activity in mouse assessed as reduction in corazol-induced convulsion at 75 mg/kg relative to control; format: functional; design: scale not given: the % may be the effect or the level left
Mus musculus [10] = experiment: Anti-analeptic activity in mouse assessed as reduction in corazol-induced convulsion at 25 mg/kg relative to control; format: functional; design: scale not given: the % may be the effect or the level left
[11] = Protection against caffeine-induced mortality in mouse at 250 mg/kg; format: ADME, organism-based; conditions: in vivo
[12] = Protection against strychnine-induced mortality in mouse at 100 mg/kg; format: ADME, organism-based; conditions: in vivo
[13] = target: T1, Neuronal acetylcholine receptor; alpha4/beta2 (Homo sapiens, UniProt P17787+P43681); experiment: Potency index, ratio of nicotine IC50 to test compound IC50 for Displacement of [3H]cytisine from human alpha4beta2 nAChR by radioligand competition analysis; format: protein-complex assay
[14] = target: T1, Neuronal acetylcholine receptor; alpha4/beta2
[15] = target: T1, Neuronal acetylcholine receptor; alpha4/beta2; experiment: Potency index, ratio of nicotine Ki to test compound Ki for Displacement of [3H]cytisine from human alpha4beta2 nAChR by Cheng-Prusoff equation analysis; format: protein-complex assay
[16] = target: T1, Neuronal acetylcholine receptor; alpha4/beta2; remark: listed apart in the source
PC-12 [17] = experiment: Induction of neurite outgrowth in rat PC-12 cells at 3.3 uM incubated for 24 hrs by phase contrast microscopic analysis relative to control; format: functional
PC-12 [18] = experiment: Induction of neurite outgrowth in rat PC-12 cells at 10 uM incubated for 24 hrs by phase contrast microscopic analysis relative to control; format: functional
PC-12 [19] = experiment: Induction of neurite outgrowth in rat PC-12 cells at 33 uM incubated for 24 hrs by phase contrast microscopic analysis relative to control; format: functional
Acetylcholinesterase [20] = target: T2, Acetylcholinesterase (Homo sapiens, UniProt P22303); experiment: Inhibition of human erythrocyte acetylcholinesterase using acetylthiocholine as substrate preincubated for 20 mins followed by substrate addition and measured every 30 secs for 1 hr by Ellman's method
[21] = target: T3, Neuronal acetylcholine receptor; alpha4/beta2 (Rattus norvegicus, UniProt P09483+P12390)
[22] = target: T4, Neuronal acetylcholine receptor subunit alpha-7 (Rattus norvegicus, UniProt Q05941)
Description: Displacement of [3H]MLA from rat alpha7 nAChR by liquid scintillation counting

Mus musculus [23] = species: Mus musculus; experiment: Antiaggressive activity in mouse assessed as reduction in foot shock induced fighting behavior; format: functional; design: scale not given: the % may be the effect or the level left
Mus musculus [24] = species: Mus musculus; experiment: Antipsychotic activity in trained mouse assessed as reduction in ability of mouse to remain on rotating rod; format: functional
Rattus norvegicus [25] = experiment: Protection against pentylenetetrazol-induced convulsion in rat at 50 to 100 mg/kg, ip relative to control; format: functional; conditions: dose 50-100 mg/kg
Rattus norvegicus [26] = species: Rattus norvegicus; experiment: Potentiation of diphenylhydantoin-induced anticonvulsant activity in rat relative to control; format: functional
Mus musculus [27] = species: Mus musculus; experiment: Antipsychotic activity in mouse assessed as reduction in amphetamine-induced toxicity; format: functional; design: scale not given: the % may be the effect or the level left
Mus musculus [28] = species: Mus musculus; experiment: Antipsychotic activity in albino mouse assessed as potentiation of hexobarbital-induced sleeping time; format: functional
[29] = Toxicity in ip dosed albino rat; format: organism-based; conditions: in vivo
Rattus norvegicus [30] = species: Rattus norvegicus; experiment: Potentiation of morphine-induced analgesia in rat relative to control; format: functional
[31] = target: T5, Dopamine beta-hydroxylase (Bos taurus) (UniProt P15101); experiment: Inhibition of bovine adrenal medulla DBH at 0.005 uM relative to control
T5 sequence (whole entry): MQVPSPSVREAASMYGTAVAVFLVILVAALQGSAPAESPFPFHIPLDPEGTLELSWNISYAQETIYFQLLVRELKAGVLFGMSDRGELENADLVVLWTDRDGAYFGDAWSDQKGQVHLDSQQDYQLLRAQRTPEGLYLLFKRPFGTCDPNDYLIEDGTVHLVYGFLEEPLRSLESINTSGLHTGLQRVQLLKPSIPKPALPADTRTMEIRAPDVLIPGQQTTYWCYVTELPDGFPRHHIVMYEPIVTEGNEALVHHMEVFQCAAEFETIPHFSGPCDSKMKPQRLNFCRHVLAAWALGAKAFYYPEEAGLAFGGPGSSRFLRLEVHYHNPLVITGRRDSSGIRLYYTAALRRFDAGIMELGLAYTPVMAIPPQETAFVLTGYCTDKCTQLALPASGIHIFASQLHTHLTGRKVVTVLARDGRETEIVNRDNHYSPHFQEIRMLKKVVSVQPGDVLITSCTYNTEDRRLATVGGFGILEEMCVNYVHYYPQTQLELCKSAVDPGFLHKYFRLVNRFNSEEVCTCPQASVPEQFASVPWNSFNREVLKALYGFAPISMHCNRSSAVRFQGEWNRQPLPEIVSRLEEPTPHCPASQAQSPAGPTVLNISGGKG

[32] = target: T5, Dopamine beta-hydroxylase (Bos taurus); experiment: Inhibition of bovine adrenal medulla DBH at 0.05 uM relative to control
[33] = target: T5, Dopamine beta-hydroxylase (Bos taurus); experiment: Inhibition of bovine adrenal medulla DBH at 1 uM relative to control
[34] = In vivo inhibition of DBH in rat assessed as norepinephrine expression in rat brain at 100 mg/kg, ip administered as single dose measured after 3 hrs by spectrophotofluorometric analysis (reference value: 0.22 ug/g); format: functional, organism-based
[35] = target: Dopamine beta-hydroxylase (Bos taurus, UniProt P15101); experiment: Inhibition of bovine adrenal medulla DBH incubated for 25 mins
[36] = target: T5, Dopamine beta-hydroxylase (Bos taurus); experiment: Inhibition of bovine adrenal medulla DBH at 0.5 uM relative to control
[37] = In vivo inhibition of DBH in rat assessed as norepinephrine expression in rat brain at 100 mg/kg, ip administered as single dose measured after 3 hrs by spectrophotofluorometric analysis (reference value: 0.42 ug/g); format: functional, organism-based
[38] = In vivo inhibition of DBH in human assessed as reduction in 3-methoxy-4-hydroxy-phenylglycol level in cerebrospinal fluid at 1.12g administered for 10 to 20 days; format: functional; conditions: time 10-20 day
Acetylcholinesterase [39] = target: Acetylcholinesterase (Electrophorus electricus, UniProt O42275)
Rattus norvegicus [40] = species: Rattus norvegicus; experiment: Antagonist activity at nAChR in Sprague-Dawley rat striatum assessed as inhibition of nicotine-evoked [3H] dopamine release at 100 nM relative to control; format: tissue-based
[41] = target: T3, Neuronal acetylcholine receptor; alpha4/beta2; experiment: Inhbition of [3H] nicotine binding to rat brain alpha4beta2 nAChR by Cheng-Prusoff equation analysis
[42] = Toxicity in iv dosed Swiss-Webster mouse by up-and-down method; format: organism-based; conditions: in vivo
[43] = target: T4, Neuronal acetylcholine receptor subunit alpha-7; experiment: Agonist activity at rat brain alpha7 nAChR
[44] = target: T4, Neuronal acetylcholine receptor subunit alpha-7; experiment: Displacement of 125I-alpha-bungarotoxin from rat brain alpha7 nAChR by radioligand binding assay
Acetylcholinesterase [45] = target: T2, Acetylcholinesterase
Cholinesterase [46] = target: Cholinesterase (Homo sapiens, UniProt P06276); experiment: Inhibition of BuChE (unknown origin)
[47] = target: T1, Neuronal acetylcholine receptor; alpha4/beta2; experiment: Agonist activity at human brain alpha4beta2 nAChR expressed in CHO cells assessed as maximal receptor response by patch clamp electrophysiological assay relative to control; format: cell-based
[48] = target: T1, Neuronal acetylcholine receptor; alpha4/beta2; experiment: Potency index, ratio of nicotine I-max to compound I-max for human brain alpha4beta2 nAChR expressed in CHO cells; format: cell-based
[49] = target: T1, Neuronal acetylcholine receptor; alpha4/beta2; experiment: Potency index, ratio of nicotine EC50 to compound EC50 for human brain alpha4beta2 nAChR expressed in CHO cells; format: cell-based
[50] = target: T1, Neuronal acetylcholine receptor; alpha4/beta2; remark: listed apart in the source
Description: Agonist activity at human brain alpha4beta2 nAChR expressed in CHO cells by patch clamp electrophysiological assay

[51] = target: Neuronal acetylcholine receptor; alpha3/beta4 (Rattus norvegicus, UniProt P04757+P12392); experiment: Agonist activity at rat alpha3beta4 nAChR expressed in Xenopus laevis oocytes; format: cell-based, Oocyte
[52] = target: T4, Neuronal acetylcholine receptor subunit alpha-7; experiment: Agonist activity at rat alpha7 nAChR expressed in Xenopus laevis oocytes; format: cell-based, Oocyte
Rattus norvegicus [53] = experiment: Antihypertensive activity in spontaneously hypertensive rat assessed as reduction in blood pressure at 50 mg/kg, po measured after 5 hr relative to control; format: functional; design: scale not given: the % may be the effect or the level left
Rattus norvegicus [54] = experiment: Antihypertensive activity in spontaneously hypertensive rat assessed as reduction in blood pressure at 50 mg/kg, po measured after 1 hr relative to control; format: functional; design: scale not given: the % may be the effect or the level left
Rattus norvegicus [55] = experiment: Antihypertensive activity in spontaneously hypertensive rat assessed as reduction in blood pressure at 50 mg/kg, po measured after 3 hrs relative to control; format: functional; design: scale not given: the % may be the effect or the level left
[56] = Toxicity in ip dosed mouse; format: organism-based; conditions: in vivo
Acetylcholinesterase [57] = target: T2, Acetylcholinesterase; experiment: Inhibition of human erythrocyte acetylcholinesterase using acetylthiocholine as substrate by Ellman's colorimetric method
[58] = Selectivity ratio of Ki for horse serum BuChE to Ki for human erythrocyte acetylcholinesterase
Cholinesterase [59] = target: Cholinesterase (Equus caballus, UniProt P81908); experiment: Inhibition of horse serum BuChE by Ellman's colorimetric method

T1 sequence (P17787 whole entry): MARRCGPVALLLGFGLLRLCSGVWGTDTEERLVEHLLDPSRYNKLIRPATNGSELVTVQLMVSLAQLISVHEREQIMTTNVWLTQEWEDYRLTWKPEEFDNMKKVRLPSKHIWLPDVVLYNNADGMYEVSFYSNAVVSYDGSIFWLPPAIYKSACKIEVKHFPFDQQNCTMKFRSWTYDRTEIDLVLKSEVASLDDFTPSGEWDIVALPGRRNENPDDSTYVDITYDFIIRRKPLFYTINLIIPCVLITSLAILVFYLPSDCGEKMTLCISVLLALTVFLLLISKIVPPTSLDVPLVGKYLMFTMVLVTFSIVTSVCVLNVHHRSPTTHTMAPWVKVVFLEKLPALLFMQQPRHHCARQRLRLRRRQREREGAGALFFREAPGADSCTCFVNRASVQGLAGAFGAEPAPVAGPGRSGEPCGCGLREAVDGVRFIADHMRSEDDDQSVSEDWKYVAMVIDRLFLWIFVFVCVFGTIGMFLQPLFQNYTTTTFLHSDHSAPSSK
T1 sequence (P43681 whole entry): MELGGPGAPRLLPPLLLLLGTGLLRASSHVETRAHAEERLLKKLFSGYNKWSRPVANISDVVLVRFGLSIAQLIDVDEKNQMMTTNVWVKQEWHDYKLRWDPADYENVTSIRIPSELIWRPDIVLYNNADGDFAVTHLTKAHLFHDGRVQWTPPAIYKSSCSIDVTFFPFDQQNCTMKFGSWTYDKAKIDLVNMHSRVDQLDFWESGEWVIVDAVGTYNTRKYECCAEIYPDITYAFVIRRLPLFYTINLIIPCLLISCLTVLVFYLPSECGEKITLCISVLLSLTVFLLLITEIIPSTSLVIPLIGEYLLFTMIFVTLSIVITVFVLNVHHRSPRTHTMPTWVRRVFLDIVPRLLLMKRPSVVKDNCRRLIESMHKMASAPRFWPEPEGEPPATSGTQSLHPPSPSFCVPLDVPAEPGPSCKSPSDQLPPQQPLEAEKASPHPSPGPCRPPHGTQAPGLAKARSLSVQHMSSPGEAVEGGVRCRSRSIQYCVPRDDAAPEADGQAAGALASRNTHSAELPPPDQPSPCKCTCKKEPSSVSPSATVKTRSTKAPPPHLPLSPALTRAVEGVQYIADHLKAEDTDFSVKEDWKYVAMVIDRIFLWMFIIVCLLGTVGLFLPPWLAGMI
T4 sequence (Q05941 whole entry): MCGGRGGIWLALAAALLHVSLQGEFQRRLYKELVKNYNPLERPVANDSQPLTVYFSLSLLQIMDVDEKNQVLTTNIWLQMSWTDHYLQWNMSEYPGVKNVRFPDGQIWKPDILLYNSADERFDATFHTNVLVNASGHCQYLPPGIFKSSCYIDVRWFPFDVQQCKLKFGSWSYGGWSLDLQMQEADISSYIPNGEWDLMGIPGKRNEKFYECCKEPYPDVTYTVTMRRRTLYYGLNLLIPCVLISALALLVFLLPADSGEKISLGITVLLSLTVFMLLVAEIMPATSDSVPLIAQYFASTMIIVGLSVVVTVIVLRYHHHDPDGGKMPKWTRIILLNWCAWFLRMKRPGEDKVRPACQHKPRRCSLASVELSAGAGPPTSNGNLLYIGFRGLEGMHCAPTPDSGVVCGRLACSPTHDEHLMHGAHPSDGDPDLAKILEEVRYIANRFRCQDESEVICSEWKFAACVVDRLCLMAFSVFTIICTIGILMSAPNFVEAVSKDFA
T2 sequence (P22303 whole entry): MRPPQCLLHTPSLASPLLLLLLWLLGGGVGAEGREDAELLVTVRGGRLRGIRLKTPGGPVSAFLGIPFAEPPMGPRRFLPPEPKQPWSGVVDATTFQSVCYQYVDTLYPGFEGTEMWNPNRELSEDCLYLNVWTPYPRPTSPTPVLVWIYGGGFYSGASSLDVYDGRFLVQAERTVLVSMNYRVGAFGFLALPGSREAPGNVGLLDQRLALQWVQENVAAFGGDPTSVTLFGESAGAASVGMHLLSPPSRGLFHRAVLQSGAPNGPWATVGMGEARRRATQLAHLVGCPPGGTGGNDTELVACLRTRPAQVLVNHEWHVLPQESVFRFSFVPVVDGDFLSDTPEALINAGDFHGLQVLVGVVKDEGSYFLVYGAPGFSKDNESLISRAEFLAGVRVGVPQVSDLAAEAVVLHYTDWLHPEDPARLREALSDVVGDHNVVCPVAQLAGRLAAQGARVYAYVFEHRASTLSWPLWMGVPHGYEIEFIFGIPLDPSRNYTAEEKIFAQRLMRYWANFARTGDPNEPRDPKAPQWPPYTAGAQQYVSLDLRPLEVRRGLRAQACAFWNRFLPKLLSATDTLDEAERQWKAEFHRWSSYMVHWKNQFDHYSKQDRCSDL
T3 sequence (P09483 whole entry): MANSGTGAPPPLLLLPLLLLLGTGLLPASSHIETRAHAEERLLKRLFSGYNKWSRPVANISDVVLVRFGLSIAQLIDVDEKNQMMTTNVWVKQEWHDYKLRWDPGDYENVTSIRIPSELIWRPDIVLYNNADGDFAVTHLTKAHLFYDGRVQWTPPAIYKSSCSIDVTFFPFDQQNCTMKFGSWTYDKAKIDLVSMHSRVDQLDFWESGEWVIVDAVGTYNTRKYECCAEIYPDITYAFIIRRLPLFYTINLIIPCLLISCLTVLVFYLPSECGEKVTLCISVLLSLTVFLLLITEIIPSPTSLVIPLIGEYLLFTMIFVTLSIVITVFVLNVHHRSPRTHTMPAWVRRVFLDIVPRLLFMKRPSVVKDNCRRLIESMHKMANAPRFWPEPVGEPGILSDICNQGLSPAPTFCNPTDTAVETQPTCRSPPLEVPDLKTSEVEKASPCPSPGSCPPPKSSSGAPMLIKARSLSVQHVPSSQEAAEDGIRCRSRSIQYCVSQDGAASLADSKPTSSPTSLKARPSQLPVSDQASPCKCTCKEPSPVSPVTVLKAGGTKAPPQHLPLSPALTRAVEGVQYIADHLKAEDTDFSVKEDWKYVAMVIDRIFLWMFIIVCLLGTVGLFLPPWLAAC
T3 sequence (P12390 whole entry): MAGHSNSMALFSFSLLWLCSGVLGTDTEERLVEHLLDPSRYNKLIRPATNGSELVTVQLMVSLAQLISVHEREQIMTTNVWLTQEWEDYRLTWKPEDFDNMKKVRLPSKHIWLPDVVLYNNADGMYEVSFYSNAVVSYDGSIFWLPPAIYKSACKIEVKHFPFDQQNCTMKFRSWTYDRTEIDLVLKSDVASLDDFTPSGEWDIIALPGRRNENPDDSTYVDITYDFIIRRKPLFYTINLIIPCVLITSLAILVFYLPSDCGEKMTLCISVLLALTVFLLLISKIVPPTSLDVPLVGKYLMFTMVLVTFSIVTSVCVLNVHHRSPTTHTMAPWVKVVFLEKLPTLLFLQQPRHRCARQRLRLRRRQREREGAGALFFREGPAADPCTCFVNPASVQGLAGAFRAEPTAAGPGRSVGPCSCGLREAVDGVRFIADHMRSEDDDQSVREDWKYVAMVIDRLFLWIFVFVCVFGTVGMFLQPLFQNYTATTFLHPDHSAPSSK
Sequence of Neuronal acetylcholine receptor; alpha3/beta4 (P04757 whole entry): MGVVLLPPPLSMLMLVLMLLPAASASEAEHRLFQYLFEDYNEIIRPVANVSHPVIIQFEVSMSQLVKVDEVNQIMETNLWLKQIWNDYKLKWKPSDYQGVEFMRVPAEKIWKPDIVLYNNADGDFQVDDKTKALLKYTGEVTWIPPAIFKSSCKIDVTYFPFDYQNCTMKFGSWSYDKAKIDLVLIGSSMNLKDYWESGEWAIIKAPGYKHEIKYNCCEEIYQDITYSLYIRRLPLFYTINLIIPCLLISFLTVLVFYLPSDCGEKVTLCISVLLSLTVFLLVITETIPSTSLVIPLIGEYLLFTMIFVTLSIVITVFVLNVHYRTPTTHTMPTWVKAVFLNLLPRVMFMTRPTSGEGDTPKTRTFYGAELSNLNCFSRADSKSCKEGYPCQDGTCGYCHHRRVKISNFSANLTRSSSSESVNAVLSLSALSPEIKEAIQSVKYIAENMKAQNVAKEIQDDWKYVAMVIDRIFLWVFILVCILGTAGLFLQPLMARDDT
Sequence of Neuronal acetylcholine receptor; alpha3/beta4 (P12392 whole entry): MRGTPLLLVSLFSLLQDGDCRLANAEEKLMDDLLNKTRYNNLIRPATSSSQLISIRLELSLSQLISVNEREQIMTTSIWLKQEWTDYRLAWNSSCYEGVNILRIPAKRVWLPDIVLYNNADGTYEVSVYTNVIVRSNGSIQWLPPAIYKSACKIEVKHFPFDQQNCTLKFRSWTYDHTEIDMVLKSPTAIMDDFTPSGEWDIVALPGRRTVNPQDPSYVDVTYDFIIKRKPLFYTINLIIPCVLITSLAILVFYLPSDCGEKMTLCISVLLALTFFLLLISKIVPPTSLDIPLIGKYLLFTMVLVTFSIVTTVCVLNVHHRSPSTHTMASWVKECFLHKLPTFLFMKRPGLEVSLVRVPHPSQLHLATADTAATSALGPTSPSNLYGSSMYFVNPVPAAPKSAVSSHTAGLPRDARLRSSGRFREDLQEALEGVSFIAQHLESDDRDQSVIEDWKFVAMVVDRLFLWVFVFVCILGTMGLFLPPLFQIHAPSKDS
Sequence of Cholinesterase (Homo sapiens, UniProt P06276) (P06276 whole entry): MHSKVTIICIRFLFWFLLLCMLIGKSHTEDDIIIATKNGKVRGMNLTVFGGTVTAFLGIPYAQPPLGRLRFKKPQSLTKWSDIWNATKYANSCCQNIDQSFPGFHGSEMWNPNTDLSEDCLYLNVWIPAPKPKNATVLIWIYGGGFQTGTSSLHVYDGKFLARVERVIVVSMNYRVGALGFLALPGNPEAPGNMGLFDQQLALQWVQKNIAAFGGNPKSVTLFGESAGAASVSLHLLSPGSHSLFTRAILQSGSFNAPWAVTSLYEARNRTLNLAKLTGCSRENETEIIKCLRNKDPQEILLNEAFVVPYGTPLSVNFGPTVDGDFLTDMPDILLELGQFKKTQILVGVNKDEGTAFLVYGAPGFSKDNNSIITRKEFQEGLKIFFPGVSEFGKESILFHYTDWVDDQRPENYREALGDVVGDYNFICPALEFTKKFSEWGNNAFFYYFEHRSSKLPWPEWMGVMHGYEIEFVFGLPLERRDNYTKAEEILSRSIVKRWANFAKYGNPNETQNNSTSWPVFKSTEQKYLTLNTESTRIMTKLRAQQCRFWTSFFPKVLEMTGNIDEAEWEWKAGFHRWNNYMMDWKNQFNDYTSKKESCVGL

## C/C=C1\[C@H]2C=C(C)C[C@]1(N)c1ccc(=O)[nH]c1C2 [HUPERZINE A]
[1]
  Activity: 30%
[2]
  Activity: 505 nM
[3]
  Activity: 668 nM
[4]
  Activity: 85%
[5]
  LD50: 2 mg/kg
[6]
  LD50: > 4 mg/kg

## COc1c2c(nc3occc13)[C@@](CC=C(C)C)(OC)[C@H](O)CC2
Mus musculus [7]
  Activity: 100%
Mus musculus [8]
  Activity: 50%
Mus musculus [9]
  Activity: 100%
Mus musculus [10]
  Activity: 50%
[11]
  Activity: 80%
[12]
  Activity: 100%

## C[C@@H]1CC2C3Cn4c(cccc4=O)C(CN2C)C31 (some centres undefined)
[13]
  Ratio IC50: 5
[14]
  IC50: 0.00096 µM
[15]
  Ratio Ki: 5
[16]
  Ki: 0.00032 µM

## CC[C@@H](C)C[C@@H](C)/C=C(C)/C=C/C=C/C(=O)c1c(O)c(C2(O)CCC(O)CC2)cn(O)c1=O (some centres undefined)
PC-12 [17]
  Activity: 30%
PC-12 [18]
  Activity: 70%
PC-12 [19]
  Activity: 80%

## C/C=C1\C2C=C(C)CC1(NCC(=O)OC)c1ccc(=O)[nH]c1C2 (centres undefined)
Acetylcholinesterase [20]
  IC50: 6.71 µM

## O=c1c(O)ccc2n1CC1CNC2C1 (centres undefined)
[21]
  Ki: 14 µM
[22]
  Ki: 260 µM

## C=Cc1cncc2c1CCOC2=O
Mus musculus [23]
  Activity: 60%
Mus musculus [24]
  Activity: 80%
Rattus norvegicus [25]
  Activity: 70%
Rattus norvegicus [26]
  Activity: 60%
Mus musculus [27]
  Activity: 88%
Mus musculus [28]
  Activity: 80%
[29]
  LD50: 276 mg/kg
Rattus norvegicus [30]
  Activity: 150%

## CCCCc1ccc(C(=O)O)nc1 [FUSARIC ACID]
[31]
  inhibition: 20%
[32]
  inhibition: 58%
[33]
  inhibition: 92%
[34]
  IC50: 0.1 µg/g
[35]
  IC50: 0.05 µM
[36]
  inhibition: 89%
[37]
  IC50: 0.4 µg/g
[38]
  inhibition (INH): 25%

## C=CC1C2C=C(CO)CC1(N)c1ccc(=O)[nH]c1C2 (centres undefined)
Acetylcholinesterase [39]
  IC50: 23.9 µM

## CN1CCC[C@H]1c1cncc([C@@H]2CCCN2C)c1
Rattus norvegicus [40]
  inhibition: < 64%
[41]
  Ki: 1.18 µM

## c1cncc([C@@H]2CCCCN2)c1 [ANABASINE]
[42]
  LD50: 16 mg/kg
[43]
  EC50: 18 µM
[44]
  Ki: 0.39 µM

## CC1=C[C@@H]2Cc3[nH]c(=O)ccc3[C@]3(C1)NCCC[C@H]23
Acetylcholinesterase [45]
  IC50: 2.57 µM
Cholinesterase [46]
  IC50: 169 µM

## CN1CC=CC[C@H]1c1cccnc1
[47]
  Imax: 26%
[48]
  Ratio: 6
[49]
  Ratio EC50: 8
[50]
  EC50: 6.2 µM

## c1cncc([C@@H]2CCCN2)c1 [NORNICOTINE]
[51]
  EC50: 614 µM
[52]
  EC50: 17.4 µM

## O=C(O)c1ccc(Cc2ccc(O)cc2)cn1
Rattus norvegicus [53]
  Activity: 23%
Rattus norvegicus [54]
  Activity: 21%
Rattus norvegicus [55]
  Activity: 16%
[56]
  LD50: 350 mg/kg

## CN1CCCC[C@H]1c1ccc(-c2cccnc2)nc1
Acetylcholinesterase [57]
  Ki: 51 µM
[58]
  Ratio Ki: 8.6
Cholinesterase [59]
  Ki: 440 µM
